For ten compounds, IC50 and activity results are on record in US9212138B2, “Use of derivatives of indoles for the treatment of cancer” (CENTRE NATIONAL DE LA RECHERCHE SCIENTIFIQUE, priority 2009, dated 2015).

The target in the first assay is T1, MKLP-2 (RabK6) (Homo sapiens, UniProt O95235, S2A).
T1 construct: Expression clones for MKLP-21-519 (coding for residues 1 to 519) were obtained as follows; His-tag; made in house; host or cells: E. coli BL21(DE3)
T1 sequence (O95235 1-519 S2A limits assumed): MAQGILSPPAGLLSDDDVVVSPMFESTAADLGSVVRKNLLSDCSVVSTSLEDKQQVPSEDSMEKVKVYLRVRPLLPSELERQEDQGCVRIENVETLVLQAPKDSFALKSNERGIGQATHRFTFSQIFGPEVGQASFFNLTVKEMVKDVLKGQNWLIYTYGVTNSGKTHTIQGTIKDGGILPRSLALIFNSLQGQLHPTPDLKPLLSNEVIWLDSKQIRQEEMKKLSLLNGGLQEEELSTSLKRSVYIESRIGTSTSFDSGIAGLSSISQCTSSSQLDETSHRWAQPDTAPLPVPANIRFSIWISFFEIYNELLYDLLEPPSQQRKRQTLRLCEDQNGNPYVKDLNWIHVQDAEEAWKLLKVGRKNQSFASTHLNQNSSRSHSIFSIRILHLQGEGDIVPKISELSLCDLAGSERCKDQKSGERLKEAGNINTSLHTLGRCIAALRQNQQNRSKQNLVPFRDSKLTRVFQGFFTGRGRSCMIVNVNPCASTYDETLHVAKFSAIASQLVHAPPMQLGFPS
The assay can be described thus: biochemical.
Conditions: not given
As to the method: All experiments were performed at room temperature using a 96-well Sunrise photometer (Tecan, Maennedorf, Switzerland) at a final volume of 100 μl per well.
Steady-state ATPase rates were measured using the pyruvate kinase/lactate dehydrogenase-linked assay in buffer A25A (25 mM potassium ACES, pH 6.9, 2 mM MgAc2, 2 mM Na-EGTA, 0.1 mM Na-EDTA, 1 mM β-mercaptoethanol) supplemented with 1 mM MgATP; 2 mM PEP; 0.25 mM NADH; 3-10 μg/ml pyruvate kinase; 3 μg/ml lactate dehydrogenase and 8 μM taxol.
The data were analyzed using Kaleidagraph 3.0 (Synergy Software, Reading, Pa.) and Microsoft Excel to obtain the kinetic variables.
When necessary, the inhibitor concentrations were adapted depending on the initial IC50 value. Experiments were performed in triplicate and averaged data points are shown with error bars±SD.
By IC50 is commonly meant the concentration at which inhibition is half-maximal. Consider `COc1ccc2[nH]cc(/C(C#N)=C/c3ccc(OC)nc3)c2c1` [Example 52, (Z)-3-(6-methoxy-pyridin-3-yl)-2-(5-methoxy-1H-indol-3-yl)-acrylonitrile], for which the IC50 lay within 10 to 20 µM.

Take `COc1ccc2[nH]cc(/C(C#N)=C/c3ccc(C)nc3)c2c1` [Example 53, (Z)-2-(5-methoxy-1H-indol-3-yl)-3-(6-methylpyridin-3-yl)-acrylonitrile]: the IC50 was below 5 µM.

`COc1ccc2[nH]cc(/C(C#N)=C/c3ccc(C#N)nc3)c2c1` [Example 54, (Z)-5-[2-cyano-2-(5-methoxy-1H-indol-3-yl)-vinyl]-picolinonitrile]: the IC50 fell in the range of 5 to 10 µM.

`N#C/C(=C\c1cccc(C#N)c1)c1c[nH]c2ccc(O)cc12` [Example 55, (Z)-3-[2-cyano-2-(5-hydroxy-1H-indol-3-yl)-vinyl]-benzonitrile]: the half-maximal inhibitory concentration (IC50) is below 5 µM.

Consider `NC(=O)/C(=C\c1cccnc1)c1c[nH]c2ccccc12` [Example 56, (Z)-2-(1H-indol-3-yl)-3-pyridin-3-yl-acrylamide], for which the IC50 is above 50 µM.

In the case of `C#C/C(=C\c1cccnc1)c1c[nH]c2ccc(OC)cc12` [Example 58, (E)-5-methoxy-3-(1-(pyridin-3-yl)but-1-en-3-yn-2-yl)-1H-indole], the IC50 was in the range of 5 to 10 µM.

With `COc1ccc2[nH]cc(/C(C#N)=C(\C)c3cccnc3)c2c1` [Example 60, (Z)-2-(5-methoxy-1H-indol-3-yl)-3-(pyridin-3-yl)-but-2-enenitrile], the IC50 is below 5 µM.

Take `N#C/C(=N\c1cccnc1)c1c[nH]c2ccccc12` [Example 61, (Z)-(1H-indol-3-yl)-(pyridin-3-ylimino)-acetonitrile]: the IC50 was below 5 µM.

Tested on in another assay: not listed separately
The assay can be described thus: Activity of side products, test not stated. The conditions noted are these: side product of the synthesis.
Consider `NC(=O)/C(=C/c1cccnc1)c1c[nH]c2ccccc12`, for which the activity result is on record as “no activity”.

With `CCOc1ccncc1/C=C(\C#N)c1c[nH]c2ccc(OC)cc12` [Example 47b], the activity result is “no activity”.
